Source: the supplement of paper PMC10307832

Experiments:
Assay in all cases: relative viability (nuclei count vs DMSO), 5 days (fraction); higher = more cells survive
ALW-II-49-7 = compound: Cc1ccc(C(=O)Nc2cccc(C(F)(F)F)c2)cc1Nc1cncc(C(N)=O)c1 [ALW-II-49-7]
Method in brief: (§1)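 Lung cancer cell lines were seeded into 1536-well plates, kept overnight at 37 °C and pinned with five library-drug doses (not always all listed) spaced by √10. After 5 days, nuclei were Hoechst-stained, imaged at 4× and counted with MetaXpress. Viability is treated-well nuclei over vehicle-well nuclei, taken as a median across plates. Plates needed control CV below 25% and at least one doubling.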

Dasatinib = compound: Cc1nc(Nc2ncc(C(=O)Nc3c(C)cccc3Cl)s2)cc(N2CCN(CCO)CC2)n1 [Dasatinib]
Method in brief: as §1

XMD13-2 = compound: C1CC1C(=O)NC2=NNC3=C2C=CC(=C3)C4=CC(=CC=C4)C(=O)NC5CC5 [XMD13-2]
Method in brief: as §1

Cell Line	relative viability (ALW-II-49-7; 0.08 µM)	relative viability (ALW-II-49-7; 0.253 µM)	relative viability (ALW-II-49-7; 0.8 µM)	relative viability (ALW-II-49-7; 2.53 µM)	relative viability (ALW-II-49-7; 8 µM)	relative viability (Dasatinib; 0.005 µM)	relative viability (Dasatinib; 0.01581 µM)	relative viability (Dasatinib; 0.05 µM)	relative viability (Dasatinib; 0.1581 µM)	relative viability (Dasatinib; 0.5 µM)	relative viability (XMD13-2; 0.05 µM)	relative viability (XMD13-2; 0.1581 µM)	relative viability (XMD13-2; 0.5 µM)	relative viability (XMD13-2; 1.581 µM)	relative viability (XMD13-2; 5 µM)	relative viability (Dasatinib; 0.075 µM, anchor plate)
IA-LM	0.939	0.74	0.744	0.504	0.305	1.01	0.994	1	0.781	0.564	0.967	0.982	0.977	0.87	0.883	–
LC-2-ad	0.942	1.03	0.922	1.08	0.861	1	0.984	0.924	0.674	0.35	1.03	1.04	1.03	0.94	0.994	0.601
LCLC-97TM1	0.97	0.905	1.09	0.755	0.865	1.17	0.97	1.05	1	0.561	0.974	0.917	0.95	0.7	0.903	0.837
LCLC-103H	0.983	0.987	0.971	0.953	0.969	0.997	0.855	0.82	0.669	0.382	1.09	0.997	0.969	0.987	1.05	0.475
LK-2	1.03	0.971	1	–	0.926	0.943	0.569	0.587	0.297	0.257	1.24	0.904	1.05	0.915	0.966	0.311
LOU-NH91	0.939	1.03	0.951	0.654	0.837	0.839	0.893	0.724	0.587	0.422	1.12	0.979	0.965	0.85	1.15	0.558
LU99A	0.816	1.1	0.902	0.94	0.95	0.807	0.629	0.896	0.663	0.48	1.05	1.05	1.01	1.03	0.927	0.539
LXF-289	0.931	1.04	1.02	1.06	1.05	1.03	1.07	1.08	0.485	0.226	1.07	1.02	1.04	1.07	1.05	0.227
NCI-H23	0.936	0.978	0.907	1.06	0.865	0.923	0.857	0.858	0.6	0.482	1.04	0.907	1.04	0.801	1.07	0.866
NCI-H322M	0.879	1.08	0.957	0.906	0.805	0.892	0.827	0.526	0.319	0.216	1.05	0.918	0.893	0.911	1.08	0.257
NCI-H358	0.891	0.956	0.924	1.01	1.07	0.867	0.695	0.593	0.248	0.163	1.18	0.918	1.06	0.928	0.704	0.165
NCI-H441	1.2	0.868	0.913	0.902	0.762	1.03	0.997	1.11	0.636	0.338	1.19	1.08	0.968	0.96	0.771	0.675
NCI-H460	1	1.07	0.944	1.02	0.882	0.949	0.897	0.856	0.73	0.605	1.06	1.01	1.06	1.01	0.982	0.529
NCI-H520	1.04	0.987	0.987	0.94	0.964	0.785	0.592	0.518	0.257	0.243	1.09	1.09	1.08	0.851	0.643	0.21
NCI-H522	0.968	0.938	0.994	1.2	1.03	0.964	0.829	0.801	0.768	0.758	1.08	1.03	0.935	0.918	0.745	0.904
NCI-H596	0.913	0.988	0.941	0.893	0.829	0.978	0.788	0.736	0.551	0.453	1.03	1.02	0.944	1.03	1.12	0.631
NCI-H647	0.904	0.944	0.926	0.967	0.795	0.76	0.572	0.372	0.227	0.207	1.12	1.05	1.06	1.03	0.747	0.199
NCI-H650	0.992	0.997	0.841	1.03	0.647	0.876	0.936	0.861	0.712	0.5	1.1	0.963	1.04	0.845	1.03	0.475
NCI-H661	1.04	0.936	0.927	0.975	0.901	0.955	1.06	0.911	0.8	0.661	0.971	1.04	0.971	0.976	0.844	0.974
NCI-H727	1.09	0.907	0.9	0.902	0.855	0.724	0.678	0.53	0.388	0.256	1.06	0.892	0.973	0.947	1.04	0.37
NCI-H838	0.945	0.901	0.903	0.982	0.918	0.87	0.676	0.532	0.38	0.289	1.11	0.962	1.01	0.998	1.07	0.307
